Assay results: patent US20130296266A1, “Pharmaceutical Composition of Complex Carbohydrates and Essential Oils and Methods of Using the Same” (Dermal Research Laboratories, Inc., priority 1999, published 2013)

Assays:
polymyositis = assay: Mucosal treatment of polymyositis (Example 26); assay type: in vivo, human; conditions: 50 mg daily
Experimental: A person suffering from colon cancer had been unable to tolerate their colostomy and demanded that their surgeon reconnect their intestines. They refused chemotherapy but requested a preparation prepared according to this invention. They were given a formulation of sodium hyaluronate (Collaborative Laboratories, Inc) which was prepared with a mixture of molecular weights of hyaluronate (as in EXAMPLE 4). When they began taking the hyaluronate preparation, their CEA was 70.1. They have taken the hyaluronate at a dose of 10 mg three times per day mucosally and after 6 months of treatment their CEA has dropped to 4.1. They have taken no other treatments. This patient had also suffered from polymyositis for 15 years. […] After 6 months they have been able to reduce their Prednisone to 5 mg per day.

chronic eczema = assay: Topical treatment of chronic eczema (Example 16); assay type: in vivo, human; conditions: person
From the text: A person suffered from chronic eczema—scaly and red areas on their neck and arms. They had tried all types of treatments, including cortisone with no effect. They were given a preparation containing a mixture of low and high molecular weight sodium hyaluronate (prepared as in EXAMPLE 4) mixed with 1% Wintergreen Oil, 1% Spearmint Oil, and 0.5% Peppermint Oil. They applied it for one week. […] They have not treated the area for 2 months and has noted no return of signs of eczema.

Q: `C[C@]12C=CC(=O)C=C1CC[C@@H]1[C@@H]2C(=O)C[C@@]2(C)[C@H]1CC[C@]2(O)C(=O)CO` [Prednisone] was tested. Which relief of polymyositis (polymyositis) did it give?
A: The relief of polymyositis was “without much relief”.

Q: Which effect on eczema (chronic eczema) does the source give for `C[C@]12CCC(=O)C=C1CC[C@@H]1[C@@H]2C(=O)C[C@@]2(C)[C@H]1CC[C@]2(O)C(=O)CO` [cortisone] here?
A: The effect on eczema was “no effect”.
